Consider 1 compound from EP2167084B1, “AN ALLERGEN DOSAGE FORM COMPRISING AN ANTIHISTAMINE” (ALK-Abelló A/S, priority 2007, dated 2008).

This experiment in a line: Cross-over, single-centre investigation of the effect of desloratidine on local adverse effects caused by Phleum pratense pollen extract (Grazax). In kind it is in vivo, patients. The following applies: 2.5 mg, half the daily dose for a person above 12 years of age, given with Grazax.

From the text: Investigation of the effect of desloratidine on adverse effects such itching in or around the mouth and the lips, ithching throat, itching in the ears and eyes caused by Phleum pratense pollen extract
The study was is was a cross-over, single-centre investigation.
The patients participated on two single days (visit 1 and visit 2) separated by approximately two weeks to avoid development of tolerance due to Grazax treatment. The subjects received one Grazax 75,000 SQ-T on Visit 1 and if they reported treatment related local adverse events in the mouth and/or throat after intake they were eligible for Visit 2. If no treatment related adverse events were reported after Grazax intake on Visit 1 the subjects were excluded from the study. On visit 2, the subjects received 1 antihistamine (Aerius (Desloratadine) melting tablet 2.5 mg, i.e. orally-disintegrating tablet). Grazax was administered immediately after intake of antihistamine.
AEs were reported on AE pages. AEs were rated mild, moderate or severe. Furthermore, the subjects rated the AE severity on a Visual Analogue Scale (VAS). The AEs of interest were itching mouth, itching throat or other local reactions.
A total of 15 subjects attended visit 1. […] These were therefore eligible for visit 2. Key selection criteria were: • 1. […]

As to `Clc1ccc2c(c1)CCc1cccnc1C2=C1CCNCC1` [desloratidine], the “relief from the itching of the mouth and pharynx” value is listed as “sufficient to relieve most patients”.
